Tests used:
[1] = system: KCL-22; test: Antileukemic activity against human KCL-22 assessed as cell viability incubated for 48 hrs by MTT assay; assay type: functional, cell-based; conditions: KCL-22, 48 h
[2] = system: K562; test: Antileukemic activity against human K562 assessed as cell viability incubated for 48 hrs by MTT assay; assay type: functional, cell-based; conditions: K562, 48 h
[3] = system: MOLM-13; test: Antileukemic activity against human MOLM-13 assessed as cell viability incubated for 48 hrs by MTT assay; assay type: functional, cell-based; conditions: MOLM-13, 48 h
[4] = Cytotoxicity against Bone marrow cell (unknown origin) assessed as cell viability incubated for 48 hrs by MTT assay; assay type: toxicity, cell-based; conditions: bone marrow cells (unknown origin)
[5] = Cytotoxicity against human HS-27A assessed as cell viability incubated for 48 hrs by MTT assay; assay type: toxicity, cell-based; conditions: HS-27A cells
[6] = system: KU812 cell line; test: Antileukemic activity against human KU812 cell line assessed as inhibition of cell growth incubated for 48 hrs by MTT assay; assay type: functional, cell-based; conditions: KU812, 48 h
[7] = system: MV4-11; test: Antileukemic activity against human MV4-11 cell line assessed as inhibition of cell growth incubated for 48 hrs by MTT assay; assay type: functional, cell-based; conditions: MV4-11, 48 h

SMILES	EC50 [1] [µM]	EC50 [2] [µM]	EC50 [3] [µM]	EC50 at 48 h [4] [µM]	EC50 at 48 h [5] [µM]	EC50 [6] [µM]	EC50 [7] [µM]
CC1(C)CCN(CCOc2ccc3[nH]ccc3c2)c2ccc(-c3cccnc3)cc21	5.6	8.7	3.3	57.6	63.3	5.4	3.6
CC1(C)CCN(CCOc2ccc3[nH]ccc3c2)c2cc(Cc3ccccn3)ccc21	–	–	–	–	–	> 100	34.2
CC1(C)CCN(CCOc2ccc3[nH]ccc3c2)c2cccc(-c3ccnnc3)c21	–	–	–	–	–	23.5	14
CC1(C)CCN(CCOc2ccc3[nH]ccc3c2)c2ccc(-c3cnc(N)cn3)cc21	–	–	–	–	–	29.2	13.7
CC1(C)CCN(CCOc2ccc3[nH]ccc3c2)c2ccc(Cc3ccncc3)cc21	–	–	–	–	–	21.3	25.8
CC1(C)CCN(CCOc2ccc3[nH]ccc3c2)c2cc(Cc3ccncc3)ccc21	–	–	–	–	–	–	14.3
CC1(C)CCN(CCOc2ccc3[nH]ccc3c2)c2cccc(-c3cnc(N)cn3)c21	–	–	–	–	–	21.2	14.6
CC1(C)CCN(CCOc2ccc3[nH]ccc3c2)c2ccc(-c3cncnc3)cc21	–	–	–	–	–	8.3	4.2
CC1(C)CCN(CCOc2ccc3[nH]ccc3c2)c2cccc(Cc3ccncc3)c21	–	–	–	–	–	2.7	1.3
CC1(C)CCN(CCOc2ccc3[nH]ccc3c2)c2ccc(-c3ncccn3)cc21	–	–	–	–	–	29.5	4.5
CC1(C)CCN(CCOc2ccc3[nH]ccc3c2)c2ccc(-c3cnc(C#N)nc3)cc21	–	–	–	–	–	2.4	3.5
CC1(C)CCN(CCOc2ccc3[nH]ccc3c2)c2cccc(-c3ccncc3)c21	–	–	–	–	–	2.5	2.8
CC1(C)CCN(CCOc2ccc3[nH]ccc3c2)c2cccc(-c3cncnc3)c21	–	–	–	–	–	> 100	51.9
CC(C)(C)c1cc(CN(C(=O)CN(Cc2ccc(Cl)cc2)S(=O)(=O)c2c(F)c(F)c(F)c(F)c2F)c2ccc(C(=O)O)cc2)cc(C(C)(C)C)c1	15.3	10.1	2.8	18.1	27.8	4.3	2.6
CC1(C)CCN(CCOc2ccc3[nH]ccc3c2)c2cc(Cc3cccnc3)ccc21	–	–	–	–	–	25.1	20.5
CC1(C)CCN(CCOc2ccc3[nH]ccc3c2)c2ccc(Cc3ccccn3)cc21	–	–	–	–	–	11.5	7.7
CC1(C)CCN(CCOc2ccc3[nH]ccc3c2)c2cccc(-c3cnc(C#N)nc3)c21	–	–	–	–	–	4.7	5.1
CC1(C)CCN(CCOc2ccc3[nH]ccc3c2)c2ccc(Cc3cccnc3)cc21	–	–	–	–	–	5.3	4.9
CC1(C)CCN(CCOc2ccc3[nH]ccc3c2)c2cccc(-c3cccnc3)c21	–	–	–	–	–	5.8	5.9
CC1(C)CCN(CCOc2ccc3[nH]ccc3c2)c2ccc(-c3cnc(Cl)nc3)cc21	–	–	–	–	–	1.3	2.4
CC1(C)CCN(CCOc2ccc3[nH]ccc3c2)c2cccc(Cc3cccnc3)c21	–	–	–	–	–	9.3	3.1
CC1(C)CCN(CCOc2ccc3[nH]ccc3c2)c2cccc(-c3cnc(Cl)nc3)c21	–	–	–	–	–	6.7	9
CC1(C)CCN(CCOc2ccc3[nH]ccc3c2)c2cccc(Cc3ccccn3)c21	–	–	–	–	–	74.4	12.4
CC1(C)CCN(CCOc2ccc3[nH]ccc3c2)c2ccc(-c3cnccn3)cc21	–	–	–	–	–	48.1	7.7
CC1(C)CCN(CCOc2ccc3[nH]ccc3c2)c2ccc(-c3ccnnc3)cc21	–	–	–	–	–	44.6	16
O=c1[nH]c2ccccc2n1C1CCN(CCCC(c2ccc(F)cc2)c2ccc(F)cc2)CC1 [PIMOZIDE]	9.3	3.5	5.9	18.2	57.5	2.9	3.2
CC1(C)CCN(CCOc2ccc3[nH]ccc3c2)c2cccc(-c3cnccn3)c21	–	–	–	–	–	39.3	15.3
CC1(C)CCN(CCOc2ccc3[nH]ccc3c2)c2ccc(-c3cnc(N)nc3)cc21	0.3	2.9	0.3	14.5	43.9	2.3	0.4

From ChEMBL document CHEMBL6121010, “Novel antileukemic compound with sub-micromolar potency against STAT5 addicted myeloid leukemia cells” (Eur J Med Chem, 2025)
